Results: PMC6272684, “Synthesis, Antiproliferative and Antifungal Activities of 1,2,3-Triazole-Substituted Carnosic Acid and Carnosol Derivatives” (Molecules, 2015)

Tests used:
[1] = test system: normal lung fibroblasts (MRC-5); assay: Antiproliferative assay (MTT reduction, 3 days); type: cell-based, human; conditions: MRC-5 normal fibroblasts, >100 µM considered inactive, read-out: IC50 ± SD, MRC-5
Procedure: (§1) The antiproliferative activity towards the following human cell lines was determined: normal lung fibroblasts (MRC-5), gastric epithelial adenocarcinoma (AGS), lung cancer (SK-MES-1) and bladder carcinoma (J82) cells.
(§2) All human cell lines used in this work were purchased from the American Type Culture Collection (ATCC, Manasas, VA, USA). […] All media were supplemented with 10% heat-inactivated FBS, 100 IU∙mL^−1 penicillin and 100 µg∙mL^−1 streptomycin. Cells were grown in a humidified incubator with 5% CO2 in air at 37 °C. For the antiproliferative assay, cells were plated at a density of 5 × 10^4 cells∙mL^−1. Cells were seeded in 96-well plates (100 µL∙well^−1). One day after seeding, cells were treated with medium containing the compounds at concentrations ranging from 0 up to 100 µM during 3 days. The compounds were dissolved in DMSO (1% final concentration) and complete medium. Untreated cells (medium containing 1% DMSO) were used as 100% viability controls. […] Each concentration was tested in sextuplicate and experiments were repeated 2 times. Cell viability was determined by means of the MTT reduction assay at the end of the incubation with the products. […] The software used was OriginPro 8.1 [30].

[2] = test system: lung cancer (SK-MES-1) cells; assay: Antiproliferative assay (MTT reduction, 3 days); type: cell-based, human; conditions: >100 µM considered inactive, read-out: IC50 ± SD, SK-MES-1
Procedure: as §1, §2

[3] = test system: gastric epithelial adenocarcinoma (AGS) cells; assay: Antiproliferative assay (MTT reduction, 3 days); type: cell-based, human; conditions: >100 µM considered inactive, read-out: IC50 ± SD, AGS
Procedure: (§3) The antiproliferative activity towards the following human cell lines was determined: normal lung fibroblasts (MRC-5), gastric epithelial adenocarcinoma (AGS), lung cancer (SK-MES-1) and bladder carcinoma (J82) cells. […] When comparing the pairs 3–4, 5–6 and 7–8 differing in one CH2 unit in the linker, the activity decreased with linker length.
(§4) All human cell lines used in this work were purchased from the American Type Culture Collection (ATCC, Manasas, VA, USA). Normal lung MRC-5 fibroblasts (CCL-171), SK-MES-1 lung cancer cells (HTB-58) and J82 bladder carcinoma cells (HTB-1) were grown as monolayers in minimum essential Eagle medium (MEM) with Earles’s salts, 2 mM L-glutamine and 1.5 g∙L^−1 sodium bicarbonate. Gastric adenocarcinoma AGS cells (CRL-1739) were grown as monolayers in Ham F-12 medium containing 1 mM L-glutamine and 1.5 g∙L^−1 sodium bicarbonate. All media were supplemented with 10% heat-inactivated FBS, 100 IU∙mL^−1 penicillin and 100 µg∙mL^−1 streptomycin. Cells were grown in a humidified incubator with 5% CO2 in air at 37 °C. For the antiproliferative assay, cells were plated at a density of 5 × 10^4 cells∙mL^−1. Cells were seeded in 96-well plates (100 µL∙well^−1). One day after seeding, cells were treated with medium containing the compounds at concentrations ranging from 0 up to 100 µM during 3 days. The compounds were dissolved in DMSO (1% final concentration) and complete medium. Untreated cells (medium containing 1% DMSO) were used as 100% viability controls. […] Each concentration was tested in sextuplicate and experiments were repeated 2 times. Cell viability was determined by means of the MTT reduction assay at the end of the incubation with the products. The results were transformed to percentage of controls and the IC50 value was obtained adjusting the dose-response curve to a sigmoidal model. The software used was OriginPro 8.1 [30].

[4] = test system: bladder carcinoma (J82) cells; assay: Antiproliferative assay (MTT reduction, 3 days); type: cell-based, human; conditions: J82 cells, 3 days, MTT; >100 µM considered inactive; read-out: IC50 ± SD, J82
Procedure: as §3, §4

C. albicans ATCC 10231 = assay: Antifungal broth microdilution (CLSI M27-A3), growth inhibition; type: cell-based, Candida albicans; conditions: for MIC50 (minimum concentration to inhibit 50% of fungal growth), C. albicans: C. albicans ATCC 10231
Summary of the method: (§5)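 Yeast inocula (1–5 × 10^3 CFU/mL) were tested by CLSI M27-A3 broth microdilution in RPMI-1640 at 250–3.9 μg∙mL^−1 (DMSO ≤1%) for 48 h at 30 °C in the dark. Growth was read at OD405, and % inhibition was calculated against growth and sterility controls in triplicate. MIC100 is total inhibition; MIC50 is 50% inhibition.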

C. neoformans ATCC 32264 = assay: as above; type: cell-based, Cryptococcus neoformans; conditions: for MIC50 (minimum concentration to inhibit 50% of fungal growth), C. neoformans: C. neoformans ATCC 32264
Summary of the method: as §5

Structure (SMILES) | IC50 [1] | IC50 [2] | IC50 [3] | IC50 [4] | Inhibition percentage against C. albicans ATCC 10231 (C. albicans ATCC 10231; 3.9 μg∙mL^−1, 48 h) | Inhibition percentage against C. albicans ATCC 10231 (C. albicans ATCC 10231; 7.8 μg∙mL^−1, 48 h) | Inhibition percentage against C. albicans ATCC 10231 (C. albicans ATCC 10231; 15.6 μg∙mL^−1, 48 h) | Inhibition percentage against C. albicans ATCC 10231 (C. albicans ATCC 10231; 62.5 μg∙mL^−1, 48 h) | Inhibition percentage against C. albicans ATCC 10231 (C. albicans ATCC 10231; 125 μg∙mL^−1, 48 h) | Inhibition percentage against C. albicans ATCC 10231 (C. albicans ATCC 10231; 250 μg∙mL^−1, 48 h) | Inhibition percentage against C. albicans ATCC 10231 (C. albicans ATCC 10231; 31. μg∙mL^−1, 48 h) | MIC50 (minimum concentration to inhibit 50% of fungal growth), C. albicans (C. albicans ATCC 10231) | Inhibition percentage against C. neoformans ATCC 32264 (C. neoformans ATCC 32264; 3.9 μg∙mL^−1, 48 h) | Inhibition percentage against C. neoformans ATCC 32264 (C. neoformans ATCC 32264; 7.8 μg∙mL^−1, 48 h) | Inhibition percentage against C. neoformans ATCC 32264 (C. neoformans ATCC 32264; 15.6 μg∙mL^−1, 48 h) | Inhibition percentage against C. neoformans ATCC 32264 (C. neoformans ATCC 32264; 31.2 μg∙mL^−1, 48 h) | Inhibition percentage against C. neoformans ATCC 32264 (C. neoformans ATCC 32264; 62.5 μg∙mL^−1, 48 h) | Inhibition percentage against C. neoformans ATCC 32264 (C. neoformans ATCC 32264; 125 μg∙mL^−1, 48 h) | Inhibition percentage against C. neoformans ATCC 32264 (C. neoformans ATCC 32264; 250 μg∙mL^−1, 48 h) | MIC50 (minimum concentration to inhibit 50% of fungal growth), C. neoformans (C. neoformans ATCC 32264) | further results
CC(C)c1cc2c3c(c1OC(=O)CCCc1cn(CSc4ccccc4)nn1)OC(=O)C31CCCC(C)(C)C1CC2 (stereo not drawn) [Compound 2, 12-O-(4-(((1-phenylthio)methyl)-1H-1,2,3-triazol-4-yl)-butanoyloxy)-11,20-epoxyabieta-8,11,13-trien-20-one] | 46.9 ± 3.4 µM | 76 ± 5.1 µM | 41 ± 2.1 µM | 80.1 ± 4.3 µM | 1.5 ± 0.1% | 1.9 ± 0.5% | 5.2 ± 0.6% | 15.7 ± 1.8% | 27.9 ± 1.8% | 50.7 ± 0.3% | 8.9 ± 1.8% | 250 µg/mL | 1.5 ± 0.1% | 1.9 ± 0.5% | 10.3 ± 1.0% | 11.8 ± 0.3% | 20.7 ± 0.6% | 22.1 ± 1.5% | 74.8 ± 2.8% | 250 µg/mL | 
CC(C)c1cc2c3c(c1OC(=O)CCCc1cn(Cc4ccc([N+](=O)[O-])cc4)nn1)OC(=O)C31CCCC(C)(C)C1CC2 (stereo not drawn) [Compound 8, 12-O-(4-(1-(4-nitrobenzyl)-1H-1,2,3-triazol-4-yl)-butanoyloxy)-11,20-epoxyabieta-8,11,13-trien-20-one] | > 100 µM | > 100 µM | > 100 µM | > 100 µM | 0.0% | 0.0% | 0.0% | 5.6 ± 1.7% | 14.0 ± 1.9% | 27.5 ± 2.0% | 2.5 ± 1.3% | >250 µg/mL | 0.0% | 0.0% | 0.3 ± 0.1% | 0.8 ± 0.1% | 8.2 ± 2.8% | 9.5 ± 2.9% | 10.4 ± 2.8% | >250 µg/mL | 
CC(C)c1cc2c3c(c1OC(=O)CCCc1cn(Cc4ccc(Br)cc4)nn1)OC(=O)[C@@]31CCCC(C)(C)[C@@H]1CC2 [Compound 6, 12-O-(4-(1-(4-bromobenzyl)-1H-1,2,3-triazol-4-yl)-butanoyloxy)-11,20-epoxyabieta-8,11,13-trien-20-one] | > 100 µM | > 100 µM | > 100 µM | > 100 µM | 0.0% | 1.4 ± 0.4% | 1.5 ± 0.1% | 13.2 ± 1.4% | 19.9 ± 0.5% | 45.4 ± 3.4% | 4.2 ± 0.9% | >250 µg/mL | 0.0% | 0.0% | 0.0% | 5.4 ± 0.7% | 12.7 ± 0.8% | 22.4 ± 1.5% | 41.4 ± 2.7% | >250 µg/mL | 
CC(C)c1cc2c3c(c1OC(=O)CCc1cn(CSc4ccccc4)nn1)OC(=O)[C@@]31CCCC(C)(C)[C@@H]1CC2 [Compound 1, 12-O-(3-(((1-phenylthio)methyl)-1H-1,2,3-triazol-4-yl)-propanoyloxy)-11,20-epoxyabieta-8,11,13-trien-20-one] | 45.1 ± 2.1 µM | 81.7 ± 4.3 µM | 39.2 ± 2.3 µM | > 100 µM | 0.0% | 0.0% | 0.4 ± 0.2% | 3.5 ± 0.3% | 8.2 ± 0.1% | 17.1 ± 0.1% | 1.9 ± 0.3% | >250 µg/mL | 0.0% | 0.0% | 0.0% | 3.7 ± 0.1% | 3.9 ± 0.4% | 8.9 ± 0.7% | 11.0 ± 0.5% | >250 µg/mL | Antifungal activity against C. albicans (in words) (C. albicans ATCC 10231; at the assayed concentrations (250–3.9 μg∙mL^−1)): devoid of activity
